Patent US9758505B2, “3-(indol-3-yl)-pyridine derivatives, pharmaceutical compositions and methods for use” (ITEOS THERAPEUTICS, priority 2014, dated 2017)

Target: human TDO2 (Homo sapiens (Human), UniProt P48775)
Test: Cellular assay for TDO2 activity, A172 cells naturally expressing hTDO2
Assay type: cell-based
Conditions: human glioblastoma A172 cells, overnight incubation, kynurenine in supernatant
Method: A172 is a cell line derived from human brain glioblastoma cells.
To determine TDO, the cells were incubated overnight at 37° C. at 5% CO2 in IMDM (Invitrogen) supplemented with 2% FBS and 2% penicillin/streptomycin in the presence of the compounds of the present invention, at different concentrations.
The plates were then centrifuged 5 min at 1000 rpm, and 100 μL of the supernatant were collected in a conical plate, 30 uL of TCA 30% were added and a further centrifugated at 3000×g for 10 minutes. 100 μL of the supernatant were collected in a flat bottomed plate and 100 μL of 2% (w/v) 4-(dimethylamino)-benzaldehyde in acetic acid and incubated for 5 min at room temperature. Kynurenine concentrations were determined by measuring the absorbance at 480 nm. A standard curve was made with pure kynurenine. The TDO activity was measured as described above using ten serial concentrations of the compounds of the present invention. Data were fitted using the Prism™ software (GraphPad Software, Inc.) using standard software configurations.

Sequence of human TDO2 (P48775 whole entry): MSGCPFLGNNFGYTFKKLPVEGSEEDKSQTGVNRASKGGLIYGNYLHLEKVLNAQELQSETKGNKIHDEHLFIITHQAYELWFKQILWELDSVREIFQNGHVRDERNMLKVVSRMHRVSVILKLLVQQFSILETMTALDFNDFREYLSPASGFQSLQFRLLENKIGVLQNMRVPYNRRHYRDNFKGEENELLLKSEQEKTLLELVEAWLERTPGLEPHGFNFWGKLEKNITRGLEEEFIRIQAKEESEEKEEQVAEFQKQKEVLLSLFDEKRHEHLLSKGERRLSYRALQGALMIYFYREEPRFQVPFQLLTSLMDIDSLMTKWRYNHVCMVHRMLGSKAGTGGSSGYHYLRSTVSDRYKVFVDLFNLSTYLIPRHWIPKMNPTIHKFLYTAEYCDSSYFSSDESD

| IC50 | SMILES |
| --- | --- |
| 1100 nM | N[C@@H](Cc1ccccc1)C(=O)Nc1ccc(-c2c[nH]c3cc(F)ccc23)cn1 [Example 36, (S)-2-amino-N-(5-(6-fluoro-1H-indol-3-yl)pyridin-2-yl)-3-phenylpropanamide] |
| 720 nM | CS(=O)(=O)NCCCC(=O)Nc1ccc(-c2c[nH]c3cc(F)ccc23)cn1 [Example 70, N-(5-(6-fluoro-1H-indol-3-yl)pyridin-2-yl)-4-(methylsulfonamido)butanamide] |
| 700 nM | CS(=O)(=O)Nc1ccc(-c2c[nH]c3cc(F)ccc23)cn1 [Example 60, N-(5-(6-fluoro-1H-indol-3-yl)pyridin-2-yl)methanesulfonamide] |
| 440 nM | CNC(=O)Nc1ccc(-c2c[nH]c3cc(F)ccc23)cn1 [Example 66, 1-(5-(6-fluoro-1H-indol-3-yl)pyridin-2-yl)-3-methylurea] |
| 1400 nM | O=c1[nH]c2ncc(-c3c[nH]c4cc(F)ccc34)cc2o1 [Example 71, 6-(6-fluoro-1H-indol-3-yl)oxazolo[4,5-b]pyridin-2(3H)-one] |
| 370 nM | O=S(=O)(c1ccc(-c2c[nH]c3ccc(F)cc23)cn1)N1CCNCC1 [Example 95, 5-fluoro-3-(6-(piperazin-1-ylsulfonyl)pyridin-3-yl)-1H-indole] |
| 200 nM | O=S(=O)(c1ccc(-c2c[nH]c3ccccc23)cn1)N1CCNCC1 [Example 93, 3-(6-(piperazin-1-ylsulfonyl)pyridin-3-yl)-1H-indole] |
| 1300 nM | O=S(=O)(CCO)NC1CCN(c2ccc(-c3c[nH]c4cc(F)ccc34)cn2)CC1 [Example 62, N-(1-(5-(6-fluoro-1H-indol-3-yl)pyridin-2-yl)piperidin-4-yl)-2-hydroxyethanesulfonamide] |
| 1400 nM | O=S(=O)(CCN1CCOCC1)NC1CCN(c2ccc(-c3c[nH]c4cc(F)ccc34)cn2)CC1 [Example 59, N-(1-(5-(6-fluoro-1H-indol-3-yl)pyridin-2-yl)piperidin-4-yl)-2-morpholinoethanesulfonamide] |
| 270 nM | CN(CCNS(C)(=O)=O)S(=O)(=O)c1ccc(-c2c[nH]c3cc(F)ccc23)cn1 [Example 91, 5-(6-fluoro-1H-indol-3-yl)-N-methyl-N-(2-(methylsulfonamido)ethyl)pyridine-2-sulfonamide] |
| 810 nM | O=C(Nc1ccc(-c2c[nH]c3cc(F)ccc23)cn1)[C@@H]1CCCN1 [Example 58, (S)—N-(5-(6-fluoro-1H-indol-3-yl)pyridin-2-yl)pyrrolidine-2-carboxamide] |
| 460 nM | Nc1nc2ccc(-c3ccc(-c4c[nH]c5cc(F)ccc45)cn3)cc2[nH]1 [Example 67, 6-(5-(6-fluoro-1H-indol-3-yl)pyridin-2-yl)-1H-benzo[d]imidazol-2-amine] |
| 530 nM | Cc1ccc2[nH]cc(-c3ccc(S(=O)(=O)N4CCNCC4)nc3)c2c1 [Example 96, 5-methyl-3-(6-(piperazin-1-ylsulfonyl)pyridin-3-yl)-1H-indole] |
| 600 nM | O=c1[nH]c2cc(-c3c[nH]c4cc(F)ccc34)cnc2[nH]1 [Example 73, 6-(6-fluoro-1H-indol-3-yl)-1H-imidazo[4,5-b]pyridin-2(3H)-one] |
| 350 nM | CS(=O)(=O)NCCNS(=O)(=O)c1ccc(-c2c[nH]c3cc(F)ccc23)cn1 [Example 88, 5-(6-fluoro-1H-indol-3-yl)-N-(2-(methylsulfonamido)ethyl)pyridine-2-sulfonamide] |
| 500 nM | Cc1nc2cc(-c3c[nH]c4cc(F)ccc34)cnc2o1 [Example 75, 6-(6-fluoro-1H-indol-3-yl)-2-methyloxazolo[5,4-b]pyridine] |
| 400 nM | Cc1nc2ncc(-c3c[nH]c4cc(F)ccc34)cc2o1 [Example 74, 6-(6-fluoro-1H-indol-3-yl)-2-methyloxazolo[4,5-b]pyridine] |
| 590 nM | O=C1COCCN1c1ccc(-c2c[nH]c3cc(F)ccc23)cn1 [Example 82, 4-(5-(6-fluoro-1H-indol-3-yl)pyridin-2-yl)morpholin-3-one] |
